Reference: article PMC3947597 (Bioorganic & medicinal chemistry, 2013)

Test system: tubulin (colchicine site)
Assay: Inhibition of [3H]colchicine binding to tubulin
Conditions: 1.0 µM tubulin, 5.0 µM [3H]colchicine, 10 min at 37 °C

COc1ccc(/C=C\c2cc(OC)c(OC)c(OC)c2)cc1O [CA4, combretastatin A-4]
Inhibition of colchicine binding (%) ±SD, 1 µM (inhibitor 1 µM): 88±2%
Inhibition of colchicine binding (%) ±SD, 5 µM (inhibitor 5 µM): 98±0.5%
